Source: the supplement of paper PMC8612539

Tested on: Histophilus somni
Assay: minimum inhibitory concentration (MIC)
Description: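 Broth microdilution MIC (Sensititre BOPO7F bovine plate, CLSI methods) of 19 antimicrobials against field isolates of P. multocida, M. haemolytica, H. somni (deep nasopharyngeal swabs) and E. coli, Enterococcus spp. (rectal swabs) from weaned dairy heifers. Incubation 16-24 h at 35 C. MIC is the lowest concentration preventing visible growth. Values with <= or > lie at the tested range limits. Trimethoprim-sulfamethoxazole is given as the trimethoprim component of a 1:19 mixture.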

Measured: minimum inhibitory concentration

CO/N=C(\C(=O)N[C@@H]1C(=O)N2C(C(=O)O)=C(CSC(=O)c3ccco3)CS[C@H]12)c1csc(N)n1 [Ceftiofur]
≤ 0.25 µg/mL: isolate (source animal id): 3 | isolate (source animal id): 4 | isolate (source animal id): 7 | isolate (source animal id): 14 | isolate (source animal id): 15 | isolate (source animal id): 17 | isolate (source animal id): 18 | isolate (source animal id): 20 | isolate (source animal id): 23 | isolate (source animal id): 45 | isolate (source animal id): 53 | isolate (source animal id): 83 | isolate (source animal id): 88 | isolate (source animal id): 92 | isolate (source animal id): 93 | isolate (source animal id): 99 | isolate (source animal id): 100 | isolate (source animal id): 105 | isolate (source animal id): 107 | isolate (source animal id): 108 | isolate (source animal id): 109 | isolate (source animal id): 110 | isolate (source animal id): 117 | isolate (source animal id): 121 | isolate (source animal id): 123 | isolate (source animal id): 124 | isolate (source animal id): 127 | isolate (source animal id): 128 | isolate (source animal id): 130 | isolate (source animal id): 132 | isolate (source animal id): 135 | isolate (source animal id): 140 | isolate (source animal id): 141 | isolate (source animal id): 142 | isolate (source animal id): 144 | isolate (source animal id): 146 | isolate (source animal id): 147 | isolate (source animal id): 151 | isolate (source animal id): 153 | isolate (source animal id): 154 | isolate (source animal id): 156 | isolate (source animal id): 157 | isolate (source animal id): 176 | isolate (source animal id): 183 | isolate (source animal id): 186 | isolate (source animal id): 196 | isolate (source animal id): 198 | isolate (source animal id): 200 | isolate (source animal id): 206 | isolate (source animal id): 208 | isolate (source animal id): 210 | isolate (source animal id): 212 | isolate (source animal id): 215 | isolate (source animal id): 216 | isolate (source animal id): 218 | isolate (source animal id): 219 | isolate (source animal id): 224 | isolate (source animal id): 228 | isolate (source animal id): 230 | isolate (source animal id): 233 | isolate (source animal id): 238 | isolate (source animal id): 239 | isolate (source animal id): 241 | isolate (source animal id): 242 | isolate (source animal id): 243 | isolate (source animal id): 245 | isolate (source animal id): 246 | isolate (source animal id): 247 | isolate (source animal id): 248 | isolate (source animal id): 250 | isolate (source animal id): 251 | isolate (source animal id): 252 | isolate (source animal id): 254 | isolate (source animal id): 258 | isolate (source animal id): 259 | isolate (source animal id): 262 | isolate (source animal id): 264 | isolate (source animal id): 265 | isolate (source animal id): 266 | isolate (source animal id): 267 | isolate (source animal id): 269 | isolate (source animal id): 271 | isolate (source animal id): 272 | isolate (source animal id): 274 | isolate (source animal id): 276 | isolate (source animal id): 278 | isolate (source animal id): 280 | isolate (source animal id): 281 | isolate (source animal id): 283 | isolate (source animal id): 288 | isolate (source animal id): 291 | isolate (source animal id): 292 | isolate (source animal id): 296 | isolate (source animal id): 306 | isolate (source animal id): 336 | isolate (source animal id): 337 | isolate (source animal id): 341
